The values below come from PMC4305313, “A Novel Phthalimide Derivative, TC11, Has Preclinical Effects on High-Risk Myeloma Cells and Osteoclasts” (PLoS ONE, 2015).

This assay deals with T1, nucleophosmin 1 (NPM1) (Homo sapiens, UniProt P06748).
T1 construct: full length of NPM1, recombinant, expressed in E. coli
Description: SPR (Biacore […], NPM1 immobilized on NTA chip). The format is binding. A general note: Surface plasmon resonance follows binding to a sensor surface in real time, without labels.

T1 sequence (P06748 whole entry): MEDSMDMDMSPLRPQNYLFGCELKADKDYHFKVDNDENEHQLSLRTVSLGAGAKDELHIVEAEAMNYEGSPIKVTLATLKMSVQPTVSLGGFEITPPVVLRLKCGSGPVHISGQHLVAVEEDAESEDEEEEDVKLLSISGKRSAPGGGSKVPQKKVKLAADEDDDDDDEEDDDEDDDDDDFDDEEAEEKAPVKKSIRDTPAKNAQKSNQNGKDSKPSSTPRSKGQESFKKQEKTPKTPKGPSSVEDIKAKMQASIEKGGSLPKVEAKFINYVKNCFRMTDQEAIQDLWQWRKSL

As for `CC(C)c1cccc(C(C)C)c1N1C(=O)c2ccc(N)cc2C1=O` [TC11, 2-(2,6-diisopropylphenyl)-5-amino-1H-isoindole-1,3-dione], the Kd (in general, the constant that tells how readily two partners part at equilibrium) worked out at 0.0623 µM.

As to `Nc1cccc2c1CN(C1CCC(=O)NC1=O)C2=O` (centres unmarked) [lenalidomide], binding was characterised by a dissociation constant (Kd) of 0.766 µM.
